The source made the active and inactive calls. No cut-off for these calls is given here. Peptide text beside a SMILES is read from it. * marks the point of attachment. Cbz = O=C(OCc1ccccc1)*
Assays:
[1] = test system: HL-60; test: Cytotoxicity against human HL60 cells assessed as reduction in cell viability after 48 hrs by MTS assay; type: functional, cell-based; settings: HL-60, 48 h
[2] = test system: MCF7; test: Cytotoxicity against human MCF7 cells assessed as reduction in cell viability after 48 hrs by MTS assay; type: functional, cell-based; settings: MCF7, 48 h
[3] = test system: A549; test: Cytotoxicity against human A549 cells assessed as reduction in cell viability after 48 hrs by MTS assay; type: functional, cell-based; settings: A549, 48 h
[4] = test system: SMMC-7721; test: Cytotoxicity against human SMMC7721 cells assessed as reduction in cell viability after 48 hrs by MTS assay; type: functional, cell-based; settings: SMMC-7721, 48 h
[5] = test system: SW480; test: Cytotoxicity against human SW480 cells assessed as reduction in cell viability after 48 hrs by MTS assay; type: functional, cell-based; settings: SW480, 48 h
[6] = test system: RAW264.7; test: Antiinflammatory activity in mouse RAW264.7 cells assessed as reduction in LPS-induced NO production at 25 uM preincubated for 1 hr followed by LPS stimulation measured after 18 hrs by Griess assay; type: functional, cell-based
[7] = Antioxidant activity assessed as DPPH radical scavenging activity at 50 uM after 1 hr; type: functional
[8] = test system: RAW264.7; test: Inhibition of LPS-stimulated ROS production in mouse RAW264.7 cells at 25 ug/ml preincubated for 1 hr followed by LPS stimulation measured after 18 hrs by DCFH-DA probe based flow cytometry; type: functional, cell-based
[9] = test system: RAW264.7; test: Antiinflammatory activity in mouse RAW264.7 cells assessed as reduction in LPS-induced NO production preincubated for 1 hr followed by LPS stimulation measured after 18 hrs by Griess assay; type: functional, cell-based
[10] = test system: RAW264.7; test: Antiinflammatory activity in mouse RAW264.7 cells assessed as reduction in LPS-induced NO production at 25 ug/ml preincubated for 1 hr followed by LPS stimulation measured after 18 hrs by DAF-FMDA probe based flow cytometry; type: functional, cell-based
[11] = Antioxidant activity assessed as DPPH radical scavenging activity at 25 ug/ml after 1 hr; type: functional

Row | SMILES | IC50 [1] [µM] | IC50 [2] [µM] | IC50 [3] [µM] | IC50 [4] [µM] | IC50 [5] [µM] | Activity [6] | Activity [7] [%] | inhibition [8] | IC50 [9] [µM] | Activity [10] | Activity [11] [%]
1 | CC(=O)O[C@H]1C(=O)[C@@]2(C)[C@H]([C@H](OC(=O)c3ccccc3)[C@]3(O)C[C@H](OC(=O)[C@H](O)[C@@H](NC(=O)c4ccccc4)c4ccccc4)C(C)=C1C3(C)C)[C@]1(OC(C)=O)CO[C@@H]1C[C@@H]2O [PACLITAXEL] | < 0.008 | < 0.008 | < 0.008 | < 0.008 | < 0.008 | – | – | – | – | – | –
2 | COc1ccc(CCc2cc(OC)c(O[C@H](CO)[C@@H](O)c3ccc(O)c(OC)c3)c(OC)c2)cc1 | > 40 | > 40 | > 40 | > 40 | > 40 | inactive | 27.6 | Active | – | – | –
3 | COc1ccc(CCc2cc(O)c(-c3c(OC)cc([C@@H]4OO[C@H]4CO)cc3OC)c(OC)c2)cc1 | 2.3 | 4.7 | 4.4 | 5.1 | 5.3 | inactive | 18.1 | Active | – | – | –
4 | CC(C)C1=C(O)C(=O)[C@@]2(C)[C@@H]3CC[C@H]2[C@H]1C(=O)N(C)C3 | > 40 | > 40 | > 40 | > 40 | > 40 | inactive | – | – | – | – | –
5 | COc1cc(CCc2ccc(O)cc2)cc(O)c1-c1c(OC)cc([C@@H]2OO[C@H]2CO)cc1OC | 23.5 | 19.4 | 20.8 | 34.4 | > 40 | – | 37.6 | Active | 21.4 | inactive | –
6 | CC(C)C1=C(O)C(=O)[C@@]2(C)[C@@H]3CC[C@H]2[C@H]1C(=O)NC3 | > 40 | > 40 | > 40 | > 40 | > 40 | inactive | – | – | – | – | –
7 | COc1ccc(CCc2cc(OC)c3c(c2)O[C@@H](c2ccc(O)c(OC)c2)[C@H](CO)O3)cc1 | > 40 | > 40 | > 40 | > 40 | > 40 | inactive | 9.56 | inactive | – | – | –
8 | COC(=O)/C(=C(/C(=O)O)C(C)C)[C@@H]1CC[C@@H]2CN(C)C(=O)[C@@]21C | > 40 | > 40 | > 40 | > 40 | > 40 | inactive | – | – | – | – | –
9 | Cc1c(C)c2c(c(C)c1O)CCC(C)(C(=O)O)O2 (stereo unspecified) | – | – | – | – | – | – | – | – | – | – | 95.5
10 | CC(C)C[C@@H](C=O)NC(=O)[C@H](CC(C)C)NC(=O)[C@H](CC(C)C)NC(=O)OCc1ccccc1 [MG-132] (Cbz-Leu-Leu-Leu-aldehyde) | – | – | – | – | – | – | – | – | 0.2 | – | –
11 | CC(C)[C@@H]1[C@@H]([C@@H]2CC[C@@H]3CN(C)C(=O)[C@@]32C)C(=O)O[C@H]1O | > 40 | > 40 | > 40 | > 40 | > 40 | inactive | – | – | – | – | –
12 | CC(C)[C@H]1[C@@H]2C(=O)O[C@H]1[C@@]1(O)N(C)C[C@H]3CC[C@@H]2[C@]31C | > 40 | > 40 | > 40 | > 40 | > 40 | inactive | – | – | – | – | –
13 | CC(C)[C@@H]1[C@H]2OC(=O)[C@@H]1[C@@H]1CC[C@@H]3CN(C)[C@H]2[C@@]31C | > 40 | > 40 | > 40 | > 40 | > 40 | inactive | – | – | – | – | –

Reference: ChEMBL document CHEMBL4138264, “Seco-Dendrobine-Type Alkaloids and Bioactive Phenolics from Dendrobium findlayanum” (J Nat Prod, 2018)
